Several values for one entry are separate records, joined by “and”; a condition that tells them apart may be missing. Equal values may be shown once.
How the values were obtained:
[1] = tested on: MDA-MB 231 and MCF-7 human breast epithelial cell lines; assay: Wound healing / gap closure migration assay; assay type: cell-based; settings: 2 h treatment, MDA-MB 231 and MCF-7
Protocol: Published results have shown that β-CD inhibits human MDA-MB 231 cell migration (Guerra F S, Sampaio LdS, et al. (2016) Translational Medicine Communications 1:3). This inhibition was attributed to the ability of β-CD to “deplete cholesterol”. β-CD, however, depletes also phospholipids. […] Cells were cultured in 24-well culture plates (Cytoselect CBA-120, 0.9 mm wound healing/gap closure migration assay) for 24 h with wound healing insert in place. Cells were then treated for 2 h with HP-β-CD, HP-α-CD, or control. Protocol: Warm up the 24-well plate (CBA-120, Cell BioLabs Inc.) with 0.9 mm CytoSelect Wound Healing Inserts at room temperature for 10 min. Using sterile forceps, orient the desired number of inserts in the plate wells with their “wound field” aligned in the same direction. […] Add 500 μL of cell suspension to each well by carefully inserting the pipette tip through the open end at the top of the insert. For optimal cell dispersion, add 250 μL of cell suspension to either side of the open ends at the top of the insert. Incubate cells in a cell culture incubator for 12-24 hours. Carefully remove the insert from the well to begin the wound healing assay. Use sterile forceps to grab and lift the insert slowly from the plate well. Slowly aspirate and discard the media from the wells. Wash wells with media to remove dead cells and debris. Finally, add media to wells to keep cells hydrated. Repeat wash if wells still have debris or unattached cells. When washing is complete, add media with FBS and/or compounds to continue cell culture and wound healing process. Agents that inhibit or stimulate cell migration can be added directly to the wells. Incubate cells in a cell culture incubator (2 hours) and then wash cells with PBS and then add fresh media without compounds. Incubate 12-24 hours before wash and fixing. Remove the fixation solution and add 400 μL of Cell Stain Solution to each well. Allow the stain to incubate with the cells for 15 minutes at room temperature. Aspirate and discard the solution. Carefully wash each stained well 3× with deionized water. Discard washes and allow cells to dry at room temperature. Cells that migrated into the wounded area or protruded from the border of the wound were visualized and photographed under an inverted microscope. Determine the surface area of the defined wound area: Total Surface Area=0.9 mm×length. Determine the surface area of the migrated cells into the wound area: Migrated Cell Surface Area=length of cell migration (mm)×2× length. Percent Closure (%)=Migrated Cell Surface Area/Total Surface Area×100 (see FIG. 36)

[2] = cited from earlier work
[3] = cited from earlier work; remark: listed apart in the source
[4] = cited from earlier work; remark: listed apart in the source
mice/rats = settings: in vivo; cited from earlier work
cats = settings: doses of 4-8 g/kg; cited from earlier work
keratinocytes = settings: cited from earlier work
BBB = settings: cited from earlier work
whole blood = settings: cited from earlier work
Tg19959 mice = settings: four months of subcutaneous administration; cited from earlier work
[5] = cited from earlier work; remark: listed apart in the source
rats = settings: rat, in vivo, iv; cited from earlier work
[6] = tested on: MDA-MB-231 breast cancer cells; assay: NSG mice injected with human MDA-MB-231 breast cancer cells; assay type: in vivo
Protocol: NSG mice (NOD.Cg-Prkdcscid Il2rgtm1Wjl/SzJ, strain #005557 (10 wk old) were obtained from Jackson Laboratories (Bar Harbor, Me.), housed in isolated quarters, and fed with autoclaved water and food.
An MDA-MB-231 cell line was obtained (ATCC) and kept frozen in liquid nitrogen. Upon start of culture, cells were thawed (1.5 min in 37° C. water) and transferred to DMEM/F-12 supplemented with 5% FBS, 2 mM L-glutamine, 1 mM sodium pyruvate, and 0.02 mM non-essential amino acids. Cells were grown to several millions in 60 mm dishes at 70-80% confluence. Before injection, cells were briefly rinsed twice in PBS followed by Versene (EDTA, Invitrogen) and placed on ice with excess phosphate-buffered saline and phenol red-free matrigel basement membrane extract to a concentration of about 15 mg/mL matrigel. 100 μL cell mixture (20,000 cells or saline only) were injected into the lactiferous duct of the 3rd or 4th mammary glands under brief isofluorane anesthesia. Groups of 15 mice each were injected IP with 800 mg/kg of HP-α-CD, HP-β-CD per week (over four days, Mon, Tue, Thu, Fri), or saline (control) for six weeks. Size of the primary tumor was measured weekly.
Breast tissue were palpated and measured twice a week with a micro-metric analytical device scaled to 1 mm precision. Mice were weighed weekly on a digital scale (0.1 g precision).
At the end of the study period, mice were anaesthetized with isofluorane with 1× phosphate-buffered saline (PBS) and subsequently with 4% formaldehyde in PBS. Tissue from lung and liver were removed and fixated in formalin for microscopic examination. Metastases were visualized and counted by tissue embedding in paraffin and sectioning with immunohistochemistry and histological stain (H&E) and immunostained with anti-HLA antibody. After blocking for 1 h with BSA (5%, frac V), the anti-HLA was incubated at 4° C. overnight, washed for 1 h in PBS, then incubated with biotinylated anti-mouse IgG for 1 h at room temperature. After washing with PBS, metastases were detected on the slide using Envision (Dako).
After blood collection, whole blood samples were centrifuged (at 10,000 m/s^2 for 15 min and then at 100,000 m/s^2 for 10 min), and plasma was isolated. The samples were stored at −80° C. until analysis.
Prior to analysis (30 min), samples and assay reagents were equilibrated to room temperature. The samples were run at a 1:4 dilution and quantified in duplicate using a multi-plex mouse panel for quantification of IL-1β, IL-18, IL-6, IL-8, IL-17A, and GM-CSF (Bio-Plex Pro assays, Bio-Rad Laboratories) on a Luminex Bio-Plex 200 System (Bio-Rad Laboratories).

[7] = long-term parenteral, 200 mg/kg; cited from earlier work
[8] = parenteral, 12 g twice daily for 15 days; cited from earlier work
[9] = rats, suppositories containing triglycerides (Witepsol H5); cited from earlier work
SwN2a cells = settings: cited from earlier work
[10] = cited from earlier work; remark: listed apart in the source
children with NPC = settings: doses of up to 1000 mg/kg/d; cited from earlier work
[11] = IP 800 mg/kg per week for six weeks

For `CC(O)COC[C@H]1O[C@@H]2O[C@H]3[C@H](O)[C@@H](O)[C@@H](O[C@H]4[C@H](O)[C@@H](O)[C@@H](O[C@H]5[C@H](O)[C@@H](O)[C@@H](O[C@H]6[C@H](O)[C@@H](O)[C@@H](O[C@H]7[C@H](O)[C@@H](O)[C@@H](O[C@H]8[C@H](O)[C@@H](O)[C@@H](O[C@H]1[C@H](O)[C@H]2O)O[C@@H]8COCC(C)O)O[C@@H]7COCC(C)O)O[C@@H]6COCC(C)O)O[C@@H]5COCC(C)O)O[C@@H]4COCC(C)O)O[C@@H]3COCC(C)O` (stereo partly drawn) [HP-β-CD, hydroxypropyl-beta-cyclodextrin], the “cell migration / wound closure, concentration dependence” value [1] is listed as “migration decreased with higher concentration”, the “excreted after i.v. unchanged in urine” value [2] is listed as about 90% and the “i.v. toxicity, 500 mg/kg” value [3] is listed as “no damage”. The Solubility in water [4] was >600 g/l and >600 ^2) g/l, the “LD50 i.v./i.p. in mice/rats” value (mice/rats) was 10000 mg/kg and the hearing (cats) was “causes permanent hearing loss”. For the same compound, the “caspase-dependent apoptotic cell death” value (keratinocytes) was “not”, the “Transport across BBB” value (BBB; 2 h, 1 mM) was 6.6 (1 mM) % and the BBB breakdown (BBB) was 2.5 mM. The “toxicity on the BBB model” value (BBB) was “similarly safe”, the “whole blood TD50” value (whole blood) was 9 mM/L and the “spatial learning and memory deficits” value (Tg19959 mice) was “significantly improved spatial learning and memory deficits”. The “Permitted Daily Exposure (PDE) threshold, parenteral” value ([5]; CHMP 2014) was 10 mg/kg/day, the “Permitted Daily Exposure (PDE) threshold, parenteral, revised” value ([5]; Oct. 9, 2017) was 200 mg/kg/day and the “i.v. toxicity, 1 g/kg daily” value (rats) was “no signs ^6)”. The “Tumor volume, median” value [6, 11] was 378 mm3, the “effect on tumor volume” value [6, 11] was “effective” and the “plasma cytokines (IL-1β, IL-18, IL-6, IL-8, IL-17A, GM-CSF) versus Vehicle” value ([6]; conventional 0.05 level) was “significant in four other markers (not in IL-8)”. The “mice that did not develop lung metastases” value ([6]; groups of 15 mice) was 3 mice, the mice who died ([6]; groups of 15 mice) was “two” and the “bone mineral density (BMD)” value [7] was “decrease bone mineral density (BMD)”. The side effects [8] was “No side effects were observed”, the rectal absorption [9] was 26% and the “level of membrane cholesterol” value (SwN2a cells) was “reduced”. The “levels of Aβ42” value (SwN2a cells) was “dramatically lowered”, the “half-life (t1/2) after i.v. in rats” value ([10]; i.v.) was 20 min and the “oral absorption in rats” value ([10]; oral) was at most 3%. For the same compound, the tolerability (children with NPC) was “well tolerated”.
